Molecules are shown by their SMILES. “Also recorded” adds a separate entry of the source. Read-outs that look alike come from different tables or passages of the source.

One data set addresses T1, proteasome β5-subunit (Homo sapiens, UniProt P20618+P28074).
T1 construct: purchased Enzo Life sciences
The experiment in a line: Fluorometric inhibition assay, proteasome β5-subunit. Format: biochemical.

The target of the next data set is T2, human cathepsin S (CatS) (Homo sapiens, UniProt P25774).
T2 construct: purchased Sigma Aldrich
The experiment in a line: Fluorometric inhibition assay, cathepsin S. In kind it is biochemical.

Data set [1] has as its target T3, urokinase-type plasminogen activator (uPA) (Homo sapiens, UniProt P00749).
T3 construct: purchased Sigma Aldrich
The experiment in a line: Fluorometric inhibition assay, uPA. Format: biochemical.

In a further data set the target is rhodesain (Trypanosoma brucei rhodesiense, UniProt Q95PM0). In words: Fluorometric inhibition assay, rhodesain. Format: biochemical. The note with it: for Ki: Rhodesain.
For data set [2], the target named is SARS-CoV-2 main protease (M^pro) (Severe acute respiratory syndrome coronavirus 2, UniProt P0DTD1). The experiment in a line: Fluorometric (FRET) inhibition assay, SARS-CoV-2 M^pro. Format: biochemical. The note with it: initial screen at 20 µM, cut-off 80% inhibition.
The nature of data set [3]: Reactivity test of warhead probes with PhEtSH without base (NMR/LC-MS). Format: physicochemical. The following applies: non-basic conditions; for reactivity with PhEtSH (protonated thiol), in words: DMSO-d6, up to 240 min. An excerpt: (§1) To investigate the reactivity between the different warheads towards the three classes of proteases (serine, threonine and cysteine proteases), their behavior in model systems under the same reaction conditions (solvent, nucleophile and base) using either NMR or LC-MS analysis was investigated. We used reactivity probes with a Boc-L-Leu-(warhead) sequence. Leucin was chosen as a P1 amino acid to minimize influences of the side chain and due to synthetic accessibility. 2-Phenylethanethiol was used as a model nucleophile to mimic the thiol moiety of cysteine proteases, and sodium ethoxide was used as a serine/threonine replacement. DMSO-d6 was used as solvent. Under these conditions, the nucleophile is deprotonated, simulating the activated serine or threonine in the catalytic triad of serine and threonine proteases, while ethanol as protonated alcohol species turned out to be unreactive in preliminary test reactions. The reactivity tests using 2-phenylethanthiol were carried out in the presence and absence of triethylamine as a base. This allowed for a reactivity comparison of the warheads towards protonated and deprotonated nucleophilic thiol species. Generating a deprotonated thiol species in the presence of triethylamine simulates the deprotonated cysteine in the catalytic dyad of cysteine proteases. Scheme 8 illustrates the reaction of the reactivity assay with both model nucleophiles and the vinyl sulfone moiety 109 as an example.
(§2) The reactivity tests of all Michael acceptors, 109, 110, 111 and 112, the α-ketobenzothiazole 115 and nitrile 117 were investigated using an NMR-based analysis method, while the β-lactam 108 reactivity was investigated via LC-MS, due to its lack of proton signals, which could be used for evaluation of the reactivity in the ^1H-NMR studies, and the irreversible reaction mechanism, which allowed the LC-MS analysis. […] Formation of the expected adducts with the nitrile 117 (PhEtSH/PhEtS^–/EtONa), the α-ketobenzothiazole 115 (PhEtSH/PhEtS^–) and the nitroalkene 111 (EtONa) could not be observed. This may have been due to the covalent reversible reaction mechanism of the nitrile and α-ketobenzothiazole and the overall difficult ionization of the specific compounds by an electron spray ionization mass spectrometer.
(§3) Method A (NMR): ^1H-NMR spectra were recorded for the respective warhead and nucleophile mixture, before the addition of the nucleophile (0 min) and after 5, 30, 60, 120 and 240 min reaction time. For quantification, the double bond-signals (doublet/doublet of doublets, around 7.4–6.7 ppm) of the Michael acceptors were integrated relative to 1,3-dioxolane as an internal standard. The acetal CH2 signal of the internal standard at 5.3 ppm was used as a reference.
(§4) The α-ketobenzothiazole 115 and nitrile 117 were similarly analyzed by ^13C-NMR. Therefore, the corresponding ^13C-leucin derivates were synthesized (Scheme 7). Quantifications of the reactions were carried out by using the integral of the carbonyl carbon atom signal at 195 ppm for the α-ketobenzothiazole and 120 ppm for the nitrile moiety. The reference signal of DMSO-d6 was set to 39.52 ppm.
(§5) Method B (LC-MS): The reactivity of the β-lactam test compound 108 with the nucleophiles was investigated using an LC-MS-based method. To quantify the conversion, the AUCs were determined at 254 nm. In Figure 3, the UV spectra of the test reaction of the β-lactam 108 with EtONa are shown exemplarily.
(§6) The β-lactam 108 (0.07 mmol, 1eq) was solved in DMSO-d6 (0.5 mL). The reaction was measured in time intervals before (0 min), 5, 30, 60, 120 and 240 mins after the addition of the corresponding nucleophile (PhEtSH/EtONa, 2 eq) in presence of Et3N (2 eq) or not. In case of PhEtSH as the nucleophile the reaction got quenched by pouring 10 µL of the reaction mixture into a solution of 25 mM TRIS (pH 7.00) and 27 mM maleimide in a 1:1 mixture of acetonitrile/H2O (990 µL). For the reaction with EtONa as the nucleophile, the reaction solution […]

Data set [4] can be described thus: Reactivity test of warhead probes with EtONa (NMR/LC-MS). The following applies: for time to full conversion with EtONa: DMSO-d6; for reactivity with EtONa, in words: DMSO-d6, up to 240 min. In kind it is physicochemical.
Text: as §1, §2, §3, §4, §5, §6

Data set [5] is described as follows: Reactivity test of warhead probes with PhEtSH + Et3N (NMR/LC-MS). In kind it is physicochemical. The note with it: for reactivity with PhEtSH + Et3N (deprotonated thiol), in words: DMSO-d6, up to 240 min; for time to full conversion with PhEtSH + Et3N: DMSO-d6.
Text: as §1, §2, §3, §4, §5, §6

Where [6] appears, read: initial screen at 20 µM, cut-off 80% inhibition.

T2 sequence (P25774 115-331): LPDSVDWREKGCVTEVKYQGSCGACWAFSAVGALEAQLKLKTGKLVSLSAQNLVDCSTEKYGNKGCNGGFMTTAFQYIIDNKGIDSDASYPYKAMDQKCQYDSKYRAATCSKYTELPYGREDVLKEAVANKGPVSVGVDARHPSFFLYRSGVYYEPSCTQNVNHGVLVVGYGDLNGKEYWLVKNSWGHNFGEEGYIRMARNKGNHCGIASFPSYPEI
Sequence of rhodesain (Q95PM0 entry or part of it): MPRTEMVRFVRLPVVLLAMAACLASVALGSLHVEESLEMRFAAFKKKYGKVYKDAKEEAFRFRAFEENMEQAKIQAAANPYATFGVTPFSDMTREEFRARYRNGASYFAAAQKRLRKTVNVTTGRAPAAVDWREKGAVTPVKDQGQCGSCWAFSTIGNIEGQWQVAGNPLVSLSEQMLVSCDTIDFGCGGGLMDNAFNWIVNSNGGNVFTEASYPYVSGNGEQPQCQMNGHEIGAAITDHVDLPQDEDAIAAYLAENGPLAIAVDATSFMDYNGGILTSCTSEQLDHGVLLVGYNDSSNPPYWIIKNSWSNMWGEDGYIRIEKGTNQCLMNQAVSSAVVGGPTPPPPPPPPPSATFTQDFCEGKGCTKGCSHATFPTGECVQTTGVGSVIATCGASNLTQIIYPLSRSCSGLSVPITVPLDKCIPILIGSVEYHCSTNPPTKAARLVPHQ

Consider `COC(=O)[C@H](C[C@@H]1CCNC1=O)NC(=O)OC(C)(C)C` [compound 85], for which the “inhibition of the proteasome β5-subunit, in words” value (shortened to “inhibition”) against proteasome β5-subunit (setting [6]) was “None”.
Take `CC(=O)NCC(=O)NC(C(=O)N[C@@H](C)C(=O)N[C@@H](CCCNC(=N)N)C(=O)c1nc2ccccc2s1)[C@H](C)O` (stereo partly shown) [compound 103]: the “activity against CatS, in words” value at human cathepsin S (CatS) (setting [6]) is listed as “not inhibited; also recorded: not active at 20 µM”. Further, the Ki is 141 ± 27 nM in data set [1] (Table S1; a) calculated from IC50 with Cheng–Prusoff, n.a. = not active (<80% inhibition at 20 µM), read-out: Ki, uPA) and 126 nM in data set [1] (calculated from Ki, –log10(Ki/M), read-out: pKi, uPA inhibition (converted)). The “activity against uPA, in words” value in data set [1] (setting [6]) is “active; also recorded: displayed inhibitory activity”. For the same molecule, the “activity against rhodesain, in words” value on rhodesain (setting [6]) was “not inhibited; also recorded: inactive”. For the same molecule, the “activity against M^pro, in words” value in data set [2] is recorded as “not inhibited”. Further, on proteasome β5-subunit (setting [6]), the “inhibition” value is reported as “not inhibited”.
Regarding `CC(C)C[C@H](NC(=O)[C@H](Cc1ccccc1)NC(=O)c1cnccn1)C(=O)N[C@H]1CN(c2ccccc2)C1=O` [compound 72], the “inhibition” value on proteasome β5-subunit is “None and did not inhibit”.
As for `CC(C)CC(C#N)NC(=O)C(Cc1ccccc1)NC(=O)c1cnccn1` (stereo not shown) [compound 74], the Ki on human cathepsin S (CatS) (Ki, CatS) is 238 ± 23 nM; on rhodesain, 560 ± 267 nM. Moreover, the “inhibition” value on proteasome β5-subunit is “None and no inhibition and missing inhibition”.
Take `CC(C)C[C@@H]([13C]#N)NC(=O)OC(C)(C)C` [compound 117]: the “conversion with PhEtSH” value in data set [3] (DMSO-d6, time not stated) worked out at 7%. In data set [3], the “reactivity with PhEtSH (protonated thiol), in words” value is recorded as “did indeed react”. Moreover, the “conversion with EtONa” value in data set [4] (DMSO-d6, at 5 min) was 10%. Further, the “reactivity with PhEtSH + Et3N (deprotonated thiol), in words” value (from here on “reactivity with PhEtSH + Et3N”) in data set [5] was “Every warhead except the β-lactam 108 and the nitrile 117 reacted; also recorded: no reaction”.
Consider `CC(C)CC(NC(=O)C(Cc1ccccc1)NC(=O)c1cnccn1)C(=O)c1nc2ccccc2s1` (stereo not shown) [compound 62], for which the “inhibition” value against proteasome β5-subunit was “None and no inhibition”.
Take `CC(C)C[C@H](NC(=O)OC(C)(C)C)C(=O)N[C@H]1CN(c2ccccc2)C1=O` [compound 108]: in data set [3], the “reactivity with PhEtSH (protonated thiol), in words” value is “conversion was not observed”. Moreover, in data set [4], the “time to full conversion with EtONa” value is 60 min and the “reactivity with EtONa, in words” value is listed as “complete conversion; also recorded: strong reactivity”. Also, the “reactivity with PhEtSH + Et3N” value in data set [5] was “Every warhead except the β-lactam 108 and the nitrile 117 reacted”.
Turning to `CC(C)C[C@@H](/C=C(\F)S(=O)(=O)c1ccccc1)NC(=O)[C@H](Cc1ccccc1)NC(=O)c1cnccn1` [compound 55], the Ki at human cathepsin S (CatS) (Ki, CatS) is 934 ± 138 nM; at human cathepsin S (CatS) (pKi, Cathepsin S inhibition), 1000 nM; on rhodesain, 462 ± 39 nM. Besides, at proteasome β5-subunit, the “inhibition” value is reported as “None”.
With `CC(C)C[C@@H](C=C[N+](=O)[O-])NC(=O)[C@H](Cc1ccccc1)NC(=O)c1cnccn1` [compound 59], the Ki on human cathepsin S (CatS) (Ki, CatS) was found to be 619 ± 54 nM; on rhodesain, 2 ± 5 nM. The “inhibition” value against proteasome β5-subunit is on record as “None”.
For the molecule `CC(C)CC(NC(=O)OC(C)(C)C)[13C](=O)c1nc2ccccc2s1` (stereo not shown) [compound 115], the “conversion with PhEtSH” value in data set [3] (DMSO-d6, after 240 min) was determined as 18%. For the same molecule, the “reactivity with PhEtSH (protonated thiol), in words” value in data set [3] is “did indeed react”. In addition, in data set [4] (DMSO-d6, maximum reached after 60 min), the “maximum conversion with EtONa” value amounted to 37%. In addition, the “reactivity with EtONa, in words” value in data set [4] is recorded as “strong reactivity”. Besides, in data set [5] (DMSO-d6, time not stated), the “conversion with PhEtSH + Et3N” value is given as “around 30%”. The “reactivity with PhEtSH + Et3N” value in data set [5] is on record as “strong reactivity”.
In the case of `CCOC(=O)/C=C/C(=O)C(CC(C)C)NC(=O)OC(C)(C)C` (stereo not shown) [compound 112], in data set [3] (DMSO-d6, after 240 min), the “conversion with PhEtSH” value is on record as 92%. Further, the “reactivity with PhEtSH (protonated thiol), in words” value in data set [3] was “did indeed react; also recorded: high reactivity”. In addition, in data set [4], the “time to full conversion with EtONa” value was determined as 5 min and the “reactivity with EtONa, in words” value is “unspecific conversion”. Further, in data set [5], the “time to full conversion with PhEtSH + Et3N” value is recorded as 5 min and the “reactivity with PhEtSH + Et3N” value is given as “high reactivity”.
For `CC(C)CC(/C=C/[N+](=O)[O-])NC(=O)OC(C)(C)C` (stereo not shown) [compound 111], the “reactivity with PhEtSH (protonated thiol), in words” value in data set [3] was “conversion was not observed”. Besides, the “conversion with EtONa” value in data set [4] (DMSO-d6, after 240 min) is 84%. Besides, in data set [5] (DMSO-d6, after 240 min), the “maximum conversion with PhEtSH + Et3N” value is 82%. Besides, in data set [5], the “reactivity with PhEtSH + Et3N” value was “high reactivity”.
Take `CC(C)CC(/C=C/S(=O)(=O)c1ccccc1)NC(=O)OC(C)(C)C` (stereo not shown) [compound 109]: the “reactivity with PhEtSH (protonated thiol), in words” value in data set [3] is on record as “conversion was not observed; also recorded: missing reactivity”. Besides, in data set [4] (DMSO-d6, after 240 min), the “conversion with EtONa” value was 70%. Further, in data set [5], the “time to full conversion with PhEtSH + Et3N” value stood at 60 min and the “reactivity with PhEtSH + Et3N” value is given as “high reactivity”.
As for `CCOC(=O)/C=C/C(=O)[C@H](CC(C)C)NC(=O)[C@H](Cc1ccccc1)NC(=O)c1cnccn1` [compound 68], the “activity against CatS, in words” value at human cathepsin S (CatS) was “essentially inactive”. At rhodesain, this molecule displayed a Ki of 9 ± 1 nM. Further, the inactivation rate constant (kinact) on rhodesain (read-out: kinact, Rhodesain) is 0.006 ± 0.001 s⁻¹. Moreover, the “inhibition” value against proteasome β5-subunit is on record as “None”.

The values are drawn from publication PMC10138721, “Investigation of the Compatibility between Warheads and Peptidomimetic Sequences of Protease Inhibitors—A Comprehensive Reactivity and Selectivity Study” (International Journal of Molecular Sciences, 2023).
